# Assay results reported in paper PMC5595280, “Cytotoxicity and anti-tumor effects of new ruthenium complexes on triple negative breast cancer cells” (PLoS ONE, 2017).
# Legend:
# MCF-10A cells [1] = assay: MTT cell proliferation assay; format: cell-based, human; settings: 24 h of incubation, read-out: IC50 ±SEM MCF-10A
# Procedure: (§1) MDA-MB-231 human breast tumor cells and MCF7 human breast tumor cells, obtained from Rio de Janeiro Cell Bank, were maintained at 37°C in 5% CO2 in DMEM medium containing fetal bovine serum (FBS) 10% (Vitrocell). MCF-10A, a non-tumor breast cell line, obtained from Rio de Janeiro Cell Bank, was cultivated in DMEM/F12 medium containing horse serum (HS) 5%, EGF (0.02 mg/mL); hydrocortisone (0.05 mg/mL); cholera toxin (0.001 mg/mL) and insulin (0.01 mg/mL). Both media contained penicillin (100 UI/mL), streptomycin ([…]) and L-glutamine (2 mM).
# (§2) Proliferation assays were performed as described earlier. Briefly, cells lines were prepared in a concentration of 1x10^4 cells/100 μL, in complete medium (with 10% FBS), and plated on sterile 96-well plates for 24 h. The culture medium was removed from the wells and a new one, supplemented with 10% FBS and containing different concentrations of (1) [Ru(SO4)(dppb)(bipy)] (2) [Ru(CO3)(dppb)(bipy)], (3), [Ru(C2O4)(dppb)(bipy)], or (4) [Ru(CH3CO2)(dppb)(bipy)]PF6, was added to the wells. Cells were incubated for 24 h under the same conditions as described above. Cell proliferation assay was performed in comparison with untreated control. After incubation, the culture medium of each well was removed and a solution containing MTT (1 mg/mL) was added (100 μL/well). The plates were then kept at 37°C for 4 h and the formed crystals were dissolved in DMSO. The absorbance was read on an ELISA plate reader at a wavelength of 540 nm. […] The selectivity index (SI) was calculated as the ratio IC50 (MCF-10A) / IC50 (MDA-MB-231).
# (§3) Each experiment was repeated three times in triplicate and a standard error mean was calculated. Shapiro-Wilk’s test was used to verify data normality. As normal distribution was present, the results were compared statistically with a one-way or two-way analysis of variance (ANOVA). […] The data were analysed and IC50 calculations were made using Hill’s equation in the GraphPad Prism software (version 6.05).
# MCF-7 cells [2] = assay: MTT cell proliferation assay; format: cell-based, human; settings: 24 h of incubation, read-out: IC50 ±SEM MCF-7
# Procedure: as §1, §2, §3
# MDA-MB-231 cells [3] = assay: MTT cell proliferation assay; format: cell-based, human; settings: 24 h of incubation, read-out: IC50 ±SEM MDA-MB-231
# Procedure: as §1, §2, §3
# HSA = HSA (Homo sapiens, UniProt P02768); assay: HSA tryptophan fluorescence quenching; format: binding; settings: for ΔS (HSA): complex-HSA system
# HSA, sequence (P02768 25-609): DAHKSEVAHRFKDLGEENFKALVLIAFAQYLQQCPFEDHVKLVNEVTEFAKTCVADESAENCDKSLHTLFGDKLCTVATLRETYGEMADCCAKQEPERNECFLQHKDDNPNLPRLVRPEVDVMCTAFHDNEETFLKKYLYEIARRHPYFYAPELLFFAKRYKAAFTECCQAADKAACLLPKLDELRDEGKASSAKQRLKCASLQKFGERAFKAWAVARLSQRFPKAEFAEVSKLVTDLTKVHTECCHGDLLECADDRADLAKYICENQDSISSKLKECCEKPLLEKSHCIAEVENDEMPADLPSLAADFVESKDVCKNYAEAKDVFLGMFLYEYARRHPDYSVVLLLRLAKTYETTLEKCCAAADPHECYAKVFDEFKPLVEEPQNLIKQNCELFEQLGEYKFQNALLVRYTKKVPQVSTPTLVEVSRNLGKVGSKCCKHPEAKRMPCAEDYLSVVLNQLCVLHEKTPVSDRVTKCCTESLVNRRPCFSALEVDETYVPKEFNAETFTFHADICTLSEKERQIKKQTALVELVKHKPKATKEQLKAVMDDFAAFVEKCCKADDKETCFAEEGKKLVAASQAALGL
# Procedure: For fluorescence measurements, the HSA concentration in Tris–HCl buffer was kept constant in all the samples, while the complex concentration was increased from 0.50 to 50 μM, and quenching of the emission intensity of the HSA tryptophan residues at 305 nm (excitation wavelength 270 nm) was monitored at different temperatures (25°C and 37°C). The experiments were carried out in triplicate and analysed using the classical Stern-Volmer equation. The binding constant (Kb) and number of complexes bound to HSA (n) were determined by plotting the double log graph of the fluorescence data using: log [(F0-F)/F] = log Kb + nlog[Q]. The thermodynamic parameter (ΔH) was calculated from equation: ln (K2/K1) = [(1/T1)-(1/T2)]ΔH/R, where K1 and K2 are the binding constants at temperatures T1 and T2, and R is the gas constant. Furthermore, the change in free energy (ΔG) and entropy (ΔS) were calculated from the following equation: ΔG = -RT lnK = ΔH − TΔS.
# Human serum albumin (HSA) is the most abundant protein in the blood and cerebrospinal fluid and plays a fundamental role in the distribution of essential transition metal ions in the human body. Moreover, HSA is an important physiological transporter of the essential metal ions Cu^2+, and Zn^2+ in the bloodstream. […] The fluorescence spectrum is essentially that of tryptophan residue; contribution of tyrosine is relatively minor. In order to determine the protein binding affinity of complexes (1–4), tryptophan emission quenching experiments were carried out by adding the complexes in increasing concentration (0–50 μM) to HSA at two different temperatures and following the decrease in fluorescence intensities (Fig 6D). The results point out a good linearity at the two different temperatures. The binding constants, KSV, calculated from the Stern-Volmer equation are presented on Table 2.
# MCF-10A cells [4] = assay: Cell morphology (inverted microscope); format: cell-based, human; settings: 24 h; for effect on cell morphology: 25 and 50 μM
# Procedure: (§4) Exponentially growing MDA-MB-231, MCF-7 or MCF-10A cells were harvested, counted and seeded (1x10^5 cells/mL) and plated on sterile 12-well plates for 24 h. Cells were allowed to grow at 37°C in 5% CO2 overnight and then, treated or not (control) with different concentrations of the complexes (1–4) for 2 and 24 h. Cell morphology was examined under an inverted microscope (Nikon, T5100) with amplification of 100×.
# (§5) In this work the cytotoxicity of the complexes was evaluated against the MDA-MB-231, MCF-7 and MCF-10A cells by morphology, clonogenic and MTT assays (Fig 2, Table 1). To investigate the effects on cell morphology, the complexes were incubated with cells at concentrations of 25 and 50 μM for 24 h.
# MCF-7 cells [5] = assay: Cell morphology (inverted microscope); format: cell-based, human; settings: MCF-7, 25 and 50 μM, 24 h
# Procedure: as §4, §5
# MDA-MB-231 cells [6] = assay: Cell morphology (inverted microscope); format: cell-based, human; settings: 24 h
# Procedure: as §4, §5
# [7] = Water-octanol partition coefficient (stir-flask method); format: physicochemical; settings: 24 h shaking, 37°C
# Procedure: The water-octanol partition coefficients were determined by use of the stir-flask method. The complex was added in a mixture with equal volumes of water and octanol shaking by 24 h at 100 rpm and 37°C, samples were centrifuged for 5min at 300rpm, the organic and aqueous phases were separated. The concentration of drug in each phase was measured spectrophotometrically in order to determine values of P = [drug] (in octanol)/[drug] (in water).
# DNA = system: DNA; set-up: method as in not given; settings: order of magnitude reported for classical intercalators; ref not given; cited from earlier work
# pBR322 plasmid DNA = assay: Agarose gel electrophoresis of plasmid DNA; format: binding; settings: Ri 0.50, 18 h, 37°C
# Procedure: Ten microliters of pBR322 plasmid DNA in a Tris-HCl buffer were incubated at 37°C for 18 h with molar ratios between 0.12 and 0.5. After incubation, 5 μL of each sample was separated by electrophoresis in a 1% agarose gel for 45 min at 100V using a Tris borate–EDTA buffer (TBE) and stained with ethidium bromide ([…] ethidium bromide per 40 mL agarose gel mixture). Samples of DNA with DMSO were used as controls. The DNA bands were visualized as an image using a UV light transilluminator (ChemiDoc MP, BioRad Laboratories).
# The influence of the compounds on the tertiary structure of DNA was determined by their ability to modify the electrophoretic mobility of forms of pBR322 plasmid DNA (Fig 6C). Agarose gel electrophoresis was performed using pBR322 plasmid DNA in the absence and presence of the complexes. […] In Ri 0.12 and 0.25 complexes (1–3) show the corresponding open circular, linear and super coiled form. […] This means that the degree of super helicity of the DNA molecules has been altered, in the same way as that described previously for other coordination platinum(II) and palladium (II) compounds containing 7-azaindolyl ligand [36].
Compound,IC50 (MCF-10A cells [1]) [µM],IC50 (MCF-7 cells [2]) [µM],IC50 (MDA-MB-231 cells [3]) [µM],Kq (HSA) (HSA; T 298) [M⁻¹ s⁻¹],Ksv (HSA) (HSA; T 298),"n (number of binding sites, HSA) (HSA; T 298)",Kq (HSA) (HSA; T 310) [M⁻¹ s⁻¹],Ksv (HSA) (HSA; T 310),"n (number of binding sites, HSA) (HSA; T 310)",ΔS (HSA) (HSA) [J.mol^-1K],effect on cell morphology (MCF-10A cells [4]),effect on cell morphology (MCF-7 cells [5]),"effect on cell morphology (MDA-MB-231 cells [6]; MDA-MB-231, 25 and 50 μM)",Log P [7],effect on cell morphology / cell density (MCF-10A cells [4]; 50 μM),DNA binding constant (DNA),electrophoretic mobility of super coiled pBR322 band (pBR322 plasmid DNA),"effect on cell morphology (MDA-MB-231 cells [6]; MDA-MB-231, 50 μM)"
"N.N.[Cl][Pt][Cl] [Cisplatin, reference compound]",29.4 ± 0.85,79.18 ± 0.2,2.43 ± 0.2,–,–,–,–,–,–,–,–,–,–,–,–,–,–,–
"O=S(=O)([O-])[O-].[Ru+2].c1ccc(-c2ccccn2)nc1.c1ccc(P(CCCCP(c2ccccc2)c2ccccc2)c2ccccc2)cc1 [Complex (1), [Ru(SO4)(dppb)(bipy)]]",42.8 ± 5.02,> 200,> 200,5.26e+13,5.04 ± 0.09 x10^4 M^-1,1.10,4.65e+13,4.45 ± 0.18 x10^4 M^-1,1.06,72.70,altered the morphology,did not alter the morphology,did not alter the morphology,0.26 ± 0.06,–,–,–,–
"O=C([O-])C(=O)[O-].[Ru+2].c1ccc(-c2ccccn2)nc1.c1ccc(P(CCCCP(c2ccccc2)c2ccccc2)c2ccccc2)cc1 [Complex (3), [Ru(C2O4)(dppb)(bipy)]]",42.2 ± 2.37,> 200,> 200,1.63e+13,1.56 ± 0.13 x10^4 M^-1,0.90,1.702e+13,1.63 ± 0.10 x10^4 M^-1,0.85,80.00,–,did not alter the morphology,did not alter the morphology,0.06 ± 0.008,reduced cell density,–,–,–
"[Cl-].[Cl-].[Ru+2].c1ccc(-c2ccccn2)nc1.c1ccc(P(CCCCP(c2ccccc2)c2ccccc2)c2ccccc2)cc1 [Precursor, cis-[RuCl2(dppb)(bipy)], reference compound]",81.9 ± 7.87,> 200,> 200,–,–,–,–,–,–,–,–,–,–,-0.40 ± 0.01,–,–,–,–
CC[n+]1c(-c2ccccc2)c2cc(N)ccc2c2ccc(N)cc21 [ethidium bromide],–,–,–,–,–,–,–,–,–,–,–,–,–,–,–,10^6 to 10^7 M^-1,–,–
[Ru(CO3)(dppb)(bipy)] [Complex (2)],31.5 ± 1.06,> 200,52.7 ± 0.62,2.935e+13,2.81 ± 0.12 x10^4 M^-1,1.00,3.425e+13,3.28 ± 0.14 x10^4 M^-1,0.98,85.80,did not alter the morphology,did not alter the morphology,–,0.55 ± 0.02,–,–,increased the electrophoretic mobility,profoundly altered their morphology
[Ru(phen)2(dppz)]^2+,–,–,–,–,–,–,–,–,–,–,–,–,–,–,–,10^6 to 10^7 M^-1,–,–
